Data on 18 compounds can be found in US12503438B2, “Compounds for the treatment of kinase-dependent disorders” (Exelixis, Inc., priority 2019, dated 2025).

One test deals with T1, AXL (Homo sapiens, UniProt P30530).
T1 construct: endogenous in cells; host or cells: A-172 glioblastoma cells (ATCC #CRL-1620)
T1 sequence (P30530 26-894): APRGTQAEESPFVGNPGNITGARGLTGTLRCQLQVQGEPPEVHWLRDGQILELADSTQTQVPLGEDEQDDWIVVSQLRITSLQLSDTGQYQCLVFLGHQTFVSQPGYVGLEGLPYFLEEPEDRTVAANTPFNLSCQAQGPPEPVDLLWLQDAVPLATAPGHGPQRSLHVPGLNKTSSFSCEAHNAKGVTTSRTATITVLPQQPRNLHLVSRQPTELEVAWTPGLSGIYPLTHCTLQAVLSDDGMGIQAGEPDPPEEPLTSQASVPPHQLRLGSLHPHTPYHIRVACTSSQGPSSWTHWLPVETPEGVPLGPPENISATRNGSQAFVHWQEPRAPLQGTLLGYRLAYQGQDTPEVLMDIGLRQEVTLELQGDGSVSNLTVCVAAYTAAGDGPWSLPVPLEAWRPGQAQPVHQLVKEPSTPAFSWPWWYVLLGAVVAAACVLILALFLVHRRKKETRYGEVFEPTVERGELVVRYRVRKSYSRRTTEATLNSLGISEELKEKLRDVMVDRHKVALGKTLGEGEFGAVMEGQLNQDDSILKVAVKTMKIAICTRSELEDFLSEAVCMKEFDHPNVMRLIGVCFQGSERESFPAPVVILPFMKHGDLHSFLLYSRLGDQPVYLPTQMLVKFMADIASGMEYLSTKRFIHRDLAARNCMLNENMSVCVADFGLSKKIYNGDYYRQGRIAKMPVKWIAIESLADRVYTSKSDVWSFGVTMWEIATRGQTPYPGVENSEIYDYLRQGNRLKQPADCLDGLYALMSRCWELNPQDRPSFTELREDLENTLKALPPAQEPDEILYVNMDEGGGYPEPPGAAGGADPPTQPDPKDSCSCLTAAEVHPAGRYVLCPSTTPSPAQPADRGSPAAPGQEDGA
The test is described as follows: AXL autophosphorylation ELISA in A-172 cells. The format is cell-based. The settings on record: cellular activity, Gas6-stimulated, phospho-AXL ELISA. The method, boiled down:
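Serum-starved (24 h) A-172 glioblastoma cells got an 8-point compound series (0.3% DMSO) for 1 h, then 1 μg/mL human Gas6 for 15 min. Lysate phospho-AXL quantified by ELISA against phospho-AXL standard, normalized to DMSO and reference-inhibitor controls; IC50 by 4-parameter logistic fit.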
For orientation: ELISA stands for enzyme-linked immunosorbent assay.

For the next test, the target named is KDR (Homo sapiens, UniProt P35968). Nature of the test: KDR autophosphorylation ELISA in HUVEC cells. It is filed as cell-based. The arrangement: endogenous in cells; host or cells: HUVEC (Lonza #C2519A). As to conditions: cellular activity, VEGF165-stimulated, phospho-KDR ELISA. In a few lines:
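Phospho-KDR levels in lysates were measured by ELISA and referenced to stimulated-vehicle (100%) and unstimulated (0%) wells, IC50 from 4-parameter logistic fit. HUVEC, starved 24 h in serum-free medium, received an 8-point compound series (0.3% DMSO) for 1 h before a 5 min 100 ng/mL VEGF165 challenge.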

Structures are written as SMILES.

Chain of KDR (P35968 20-1356): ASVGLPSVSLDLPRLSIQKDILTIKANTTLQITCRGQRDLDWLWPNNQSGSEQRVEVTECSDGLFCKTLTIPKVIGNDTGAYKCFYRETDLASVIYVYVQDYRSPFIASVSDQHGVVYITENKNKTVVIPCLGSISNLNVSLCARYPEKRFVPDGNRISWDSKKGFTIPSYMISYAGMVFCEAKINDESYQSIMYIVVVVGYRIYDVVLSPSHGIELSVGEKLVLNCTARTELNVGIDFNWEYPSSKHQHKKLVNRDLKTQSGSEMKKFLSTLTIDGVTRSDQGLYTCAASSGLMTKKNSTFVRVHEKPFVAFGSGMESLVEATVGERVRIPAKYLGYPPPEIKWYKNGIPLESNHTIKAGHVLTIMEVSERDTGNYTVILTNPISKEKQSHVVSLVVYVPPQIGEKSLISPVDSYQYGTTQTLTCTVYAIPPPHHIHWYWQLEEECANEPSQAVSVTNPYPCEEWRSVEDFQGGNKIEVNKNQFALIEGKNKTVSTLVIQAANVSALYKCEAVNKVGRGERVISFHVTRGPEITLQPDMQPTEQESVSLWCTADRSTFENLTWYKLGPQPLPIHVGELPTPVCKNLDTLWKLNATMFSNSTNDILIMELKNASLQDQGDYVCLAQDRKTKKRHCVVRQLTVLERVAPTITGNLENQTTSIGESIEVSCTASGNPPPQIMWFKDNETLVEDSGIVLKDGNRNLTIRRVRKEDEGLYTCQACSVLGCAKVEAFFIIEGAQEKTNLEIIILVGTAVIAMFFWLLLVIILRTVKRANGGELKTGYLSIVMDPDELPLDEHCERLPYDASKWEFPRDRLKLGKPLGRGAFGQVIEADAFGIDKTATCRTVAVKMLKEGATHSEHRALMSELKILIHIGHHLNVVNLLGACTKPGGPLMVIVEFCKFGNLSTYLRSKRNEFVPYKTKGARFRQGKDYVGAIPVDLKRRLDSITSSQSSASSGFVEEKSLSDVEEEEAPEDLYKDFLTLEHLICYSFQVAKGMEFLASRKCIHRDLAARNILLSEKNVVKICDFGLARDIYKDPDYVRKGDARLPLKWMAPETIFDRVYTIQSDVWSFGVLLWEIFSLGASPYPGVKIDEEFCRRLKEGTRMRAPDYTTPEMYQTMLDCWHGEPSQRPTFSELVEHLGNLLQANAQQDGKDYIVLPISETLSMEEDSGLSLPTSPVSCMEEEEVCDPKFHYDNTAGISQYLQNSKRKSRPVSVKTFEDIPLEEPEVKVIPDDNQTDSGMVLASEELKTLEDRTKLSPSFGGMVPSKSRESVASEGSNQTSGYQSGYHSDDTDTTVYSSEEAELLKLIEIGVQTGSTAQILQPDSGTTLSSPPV

For `Cc1cc(-c2ccc3c(Oc4ccc(NC(=O)C5(C(=O)Nc6ccc(F)cc6)CC5)cc4)ccnc3c2)nn1C` [Compound 101, 1-N-[4-[7-(1,5-Dimethylpyrazol-3-yl)quinolin-4-yl]oxyphenyl]-1-N′-(4-fluorophenyl)cyclopropane-1,1-dicarboxamide], the IC50 on AXL and against KDR was 10 to 100 nM throughout.

Take `Nc1cc(-c2ccc3c(Oc4ccc(NC(=O)C5(C(=O)Nc6ccc(F)cc6)CC5)cc4)ccnc3c2)ccn1` [Compound 97, 1-N-[4-[7-(2-Aminopyridin-4-yl)quinolin-4-yl]oxyphenyl]-1-N′-(4-fluorophenyl)cyclopropane-1,1-dicarboxamide]: the half-maximal inhibitory concentration (IC50) against AXL and against KDR was 10 to 100 nM throughout.

As for `Nc1n[nH]cc1-c1ccc2c(Oc3ccc(NC(=O)C4(C(=O)Nc5ccc(F)cc5)CC4)cc3)ccnc2c1` [Compound 90, 1-N-[4-[7-(3-Amino-1H-pyrazol-4-yl)quinolin-4-yl]oxyphenyl]-1-N′-(4-fluorophenyl)cyclopropane-1,1-dicarboxamide], the IC50 at AXL and at KDR was 10 to 100 nM each time.

Regarding `O=C(Nc1ccc(F)cc1)C1(C(=O)Nc2ccc(Oc3ccnc4cc(-c5cc6ccccn6n5)ccc34)cc2)CC1` [Compound 104, 1-N′-(4-Fluorophenyl)-1-N-[4-(7-pyrazolo[1,5-a]pyridin-2-ylquinolin-4-yl)oxyphenyl]cyclopropane-1,1-dicarboxamide], the IC50 at AXL was 100 to 300 nM; against KDR it was 10 to 100 nM.

For the compound `Cc1cn(-c2ccc3c(Oc4ccc(NC(=O)C5(C(=O)Nc6ccc(F)cc6)CC5)cc4)ccnc3c2)cn1` [Compound 87, 1-N′-(4-Fluorophenyl)-1-N-[4-[7-(4-methylimidazol-1-yl)quinolin-4-yl]oxyphenyl]cyclopropane-1,1-dicarboxamide], the concentration for half-maximal inhibition (IC50) against AXL and against KDR was at most 10 nM throughout.

As to `O=C(Nc1ccc(F)cc1)C1(C(=O)Nc2ccc(Oc3ccnc4cc(-c5ccn(CF)n5)ccc34)cc2)CC1` [Compound 102, 1-N-[4-[7-[1-(Fluoromethyl)pyrazol-3-yl]quinolin-4-yl]oxyphenyl]-1-N′-(4-fluorophenyl)cyclopropane-1,1-dicarboxamide], the IC50 on AXL is 10 to 100 nM; against KDR, at most 10 nM.

As to `O=C(Nc1ccc(F)cc1)C1(C(=O)Nc2ccc(Oc3ccnc4cc(-c5ccn(C6CC6)n5)ccc34)cc2)CC1` [Compound 98, 1-N-[4-[7-(1-Cyclopropylpyrazol-3-yl)quinolin-4-yl]oxyphenyl]-1-N′-(4-fluorophenyl)cyclopropane-1,1-dicarboxamide], the half-maximal inhibitory concentration (IC50) on AXL and against KDR was 10 to 100 nM in each case.

For `O=C(Nc1ccc(F)cc1)C1(C(=O)Nc2ccc(Oc3ccnc4cc(C5=CCOC5)ccc34)cc2)CC1` [Compound 95, 1-N-[4-[7-(2,5-Dihydrofuran-3-yl)quinolin-4-yl]oxyphenyl]-1-N′-(4-fluorophenyl)cyclopropane-1,1-dicarboxamide], the values for the concentration for half-maximal inhibition (IC50) at AXL and on KDR were 10 to 100 nM and at most 10 nM, respectively.

For `Cc1cc2c(Oc3ccc(NC(=O)C4(C(=O)Nc5ccc(F)cc5)CC4)cc3)ccnc2cc1-c1cc[nH]n1` [Compound 107, 1-N′-(4-Fluorophenyl)-1-N-[4-[6-methyl-7-(1H-pyrazol-3-yl)quinolin-4-yl]oxyphenyl]cyclopropane-1,1-dicarboxamide], the IC50 against AXL and at KDR was 10 to 100 nM each time.

On to `O=C(Nc1ccc(F)cc1)C1(C(=O)Nc2ccc(Oc3ccnc4cc(-c5cnn(CF)c5)ccc34)cc2)CC1` [Compound 94, 1-N-[4-[7-[1-(Fluoromethyl)pyrazol-4-yl]quinolin-4-yl]oxyphenyl]-1-N′-(4-fluorophenyl)cyclopropane-1,1-dicarboxamide], for which the IC50 against AXL and against KDR was at most 10 nM throughout.

Consider `Cc1ccn(-c2ccc3c(Oc4ccc(NC(=O)C5(C(=O)Nc6ccc(F)cc6)CC5)cc4)ccnc3c2)n1` [Compound 91, 1-N′-(4-Fluorophenyl)-1-N-[4-[7-(3-methylpyrazol-1-yl)quinolin-4-yl]oxyphenyl]cyclopropane-1,1-dicarboxamide], for which the half-maximal inhibitory concentration (IC50) on AXL and against KDR was 100 to 300 nM throughout.

Regarding `Cc1cc2c(Oc3ccc(NC(=O)C4(C(=O)Nc5ccc(F)cc5)CC4)cc3)ccnc2cc1-c1ccn(C)n1` [Compound 108, 1-N′-(4-Fluorophenyl)-1-N-[4-[6-methyl-7-(1-methylpyrazol-3-yl)quinolin-4-yl]oxyphenyl]cyclopropane-1,1-dicarboxamide], the IC50 at AXL and on KDR was 10 to 100 nM in each case.

Take `Cc1cc(-c2ccc3c(Oc4ccc(NC(=O)C5(C(=O)Nc6ccc(F)cc6)CC5)cc4)ccnc3c2)n[nH]1` [Compound 99, 1-N′-(4-Fluorophenyl)-1-N-[4-[7-(5-methyl-1H-pyrazol-3-yl)quinolin-4-yl]oxyphenyl]cyclopropane-1,1-dicarboxamide]: the half-inhibitory concentration (IC50) against AXL was 10 to 100 nM; against KDR, at most 10 nM.

With `Cc1cnn(-c2ccc3c(Oc4ccc(NC(=O)C5(C(=O)Nc6ccc(F)cc6)CC5)cc4)ccnc3c2)c1` [Compound 96, 1-N′-(4-Fluorophenyl)-1-N-[4-[7-(4-methylpyrazol-1-yl)quinolin-4-yl]oxyphenyl]cyclopropane-1,1-dicarboxamide], the IC50 against AXL is 100 to 300 nM; at KDR it was 10 to 100 nM.

As for `CC(=O)N1CCC(c2ccc3c(Oc4ccc(NC(=O)C5(C(=O)Nc6ccc(F)cc6)CC5)cc4)ccnc3c2)C1` (stereo not drawn) [Compound 92, 1-N-[4-[7-(1-Acetylpyrrolidin-3-yl)quinolin-4-yl]oxyphenyl]-1-N′-(4-fluorophenyl)cyclopropane-1,1-dicarboxamide], the IC50 was in the range of 10 to 100 nM at AXL and 100 to 300 nM against KDR.

Take `O=C(Nc1ccc(F)cc1)C1(C(=O)Nc2ccc(Oc3ccnc4cc(-c5ccccc5)ccc34)cc2)CC1` [Compound 55, 1-N′-(4-Fluorophenyl)-1-N-[4-(7-phenylquinolin-4-yl)oxyphenyl]cyclopropane-1,1-dicarboxamide]: the IC50 at AXL fell in the range of 100 to 300 nM; on KDR it was 10 to 100 nM.

Take `CS(=O)(=O)N1CCC(c2ccc3c(Oc4ccc(NC(=O)C5(C(=O)Nc6ccc(F)cc6)CC5)cc4)ccnc3c2)C1` (stereo not drawn) [Compound 93, 1-N′-(4-Fluorophenyl)-1-N-[4-[7-(1-methylsulfonylpyrrolidin-3-yl)quinolin-4-yl]oxyphenyl]cyclopropane-1,1-dicarboxamide]: the IC50 against AXL is 100 to 300 nM; against KDR, over 300 nM.

With `Cc1cc2c(Oc3cc(F)c(NC(=O)C4(C(=O)Nc5ccc(F)cc5)CC4)cc3F)ccnc2cc1-c1cnn(C)c1` [Compound 105, 1-N′-[2,5-Difluoro-4-[6-methyl-7-(1-methylpyrazol-4-yl)quinolin-4-yl]oxyphenyl]-1-N-(4-fluorophenyl)cyclopropane-1,1-dicarboxamide], the IC50 at AXL and against KDR was 10 to 100 nM throughout.

As a reminder, the IC50 is the concentration needed to halve the response being measured. A lower IC50 goes with higher potency.
